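Step 1: Grow cells in 96-well plates. Step 2: Expose to compound for 48 hours at 5 concentrations. Step 3: Interpolate endpoints linearly; if unreached, use highest concentration. The concentration for 50% growth inhibition is given as GI50.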 The source made the active and inactive calls. Rule as the data show it: active = GI50 up to about 1.1 µM and inactive = higher. Where a SMILES comes first, the peptide text is derived from it. The star is where a group is joined. Boc = CC(C)(C)OC(=O)*
What was measured:
Test in all cases: inhibition of tumour cell growth, NCI panel, 48 h
SK-OV-3 = tested on: SK-OV-3
COLO 205 = tested on: COLO 205
BT-549 = tested on: BT-549
IGROV-1 = tested on: IGROV-1
SNB-75 = tested on: SNB-75
SW-620 = tested on: SW-620
M14 = tested on: M14
MDA-MB-231 = tested on: MDA-MB-231
PC-3 = tested on: PC-3
UO-31 = tested on: UO-31
ACHN = tested on: ACHN
UACC-257 = tested on: UACC-257
A549 = tested on: A549
U-251 = tested on: U-251
NCI-H226 = tested on: NCI-H226
HOP-62 = tested on: HOP-62
OVCAR-3 = tested on: OVCAR-3
HCT-116 = tested on: HCT-116
K562 = tested on: K562
A498 = tested on: A498

Structure (SMILES)	GI50 (SK-OV-3)	GI50 (COLO 205)	GI50 (BT-549)	GI50 (IGROV-1)	GI50 (SNB-75)	GI50 (SW-620)	GI50 (M14)	GI50 (MDA-MB-231)	GI50 (PC-3)	GI50 (UO-31)	GI50 (ACHN)	GI50 (UACC-257)	GI50 (A549)	GI50 (U-251)	GI50 (NCI-H226)	GI50 (HOP-62)	GI50 (OVCAR-3)	GI50 (HCT-116)	GI50 (K562)	GI50 (A498)
CC1=CC(=O)/C(=C/Nc2nc(-c3cccc([N+](=O)[O-])c3)cs2)C(=O)O1	> 100 µM (inactive)	85.7 µM (inactive)	21.9 µM (inactive)	38.4 µM (inactive)	35.9 µM (inactive)	43.4 µM (inactive)	64.1 µM (inactive)	57.4 µM (inactive)	> 100 µM (inactive)	29.9 µM (inactive)	46.2 µM (inactive)	> 100 µM (inactive)	> 100 µM (inactive)	63.1 µM (inactive)	> 100 µM (inactive)	> 100 µM (inactive)	> 100 µM (inactive)	37.7 µM (inactive)	–	–
CN(C(=O)c1ccc2c(c1)sc1c(=O)n(C)c3ccccc3c12)c1ccccc1	> 100 µM (inactive)	> 100 µM (inactive)	> 100 µM (inactive)	> 100 µM (inactive)	> 100 µM (inactive)	> 100 µM (inactive)	> 100 µM (inactive)	> 100 µM (inactive)	> 100 µM (inactive)	37.7 µM (inactive)	33.7 µM (inactive)	> 100 µM (inactive)	> 100 µM (inactive)	50 µM (inactive)	> 100 µM (inactive)	–	> 100 µM (inactive)	> 100 µM (inactive)	> 100 µM (inactive)	–
C=CCC1(c2ccc(OC)cc2)C=CC(=O)CC1 (centres undefined)	> 100 µM (inactive)	> 100 µM (inactive)	70.6 µM (inactive)	> 100 µM (inactive)	19.4 µM (inactive)	> 100 µM (inactive)	> 100 µM (inactive)	92.7 µM (inactive)	77.3 µM (inactive)	> 100 µM (inactive)	> 100 µM (inactive)	> 100 µM (inactive)	> 100 µM (inactive)	52.4 µM (inactive)	> 100 µM (inactive)	> 100 µM (inactive)	> 100 µM (inactive)	> 100 µM (inactive)	40.2 µM (inactive)	–
CCOC(=O)C1(C(=O)OCC)CCCN1C(=O)[C@H](CNC(=O)OC(C)(C)C)NC(=O)OCc1ccccc1	> 100 µM (inactive)	> 100 µM (inactive)	> 100 µM (inactive)	> 100 µM (inactive)	79.6 µM (inactive)	> 100 µM (inactive)	> 100 µM (inactive)	> 100 µM (inactive)	> 100 µM (inactive)	> 100 µM (inactive)	> 100 µM (inactive)	> 100 µM (inactive)	> 100 µM (inactive)	> 100 µM (inactive)	> 100 µM (inactive)	> 100 µM (inactive)	> 100 µM (inactive)	> 100 µM (inactive)	32.8 µM (inactive)	–
CC1=CCC(C(C)(C)NC(=O)c2ccccc2)C/C1=N/O (centres undefined)	> 100 µM (inactive)	> 100 µM (inactive)	> 100 µM (inactive)	> 100 µM (inactive)	> 100 µM (inactive)	> 100 µM (inactive)	> 100 µM (inactive)	> 100 µM (inactive)	> 100 µM (inactive)	> 100 µM (inactive)	–	> 100 µM (inactive)	> 100 µM (inactive)	> 100 µM (inactive)	–	> 100 µM (inactive)	> 100 µM (inactive)	> 100 µM (inactive)	> 100 µM (inactive)	–
Cc1ccc(C(=O)O)cc1S(=O)(=O)Nn1cnc2ccc(S(=O)(=O)Nc3ccccc3C(=O)O)cc2c1=O	> 100 µM (inactive)	31.6 µM (inactive)	> 100 µM (inactive)	60.7 µM (inactive)	> 100 µM (inactive)	> 100 µM (inactive)	18.3 µM (inactive)	> 100 µM (inactive)	16.6 µM (inactive)	46.1 µM (inactive)	> 100 µM (inactive)	> 100 µM (inactive)	> 100 µM (inactive)	> 100 µM (inactive)	83.8 µM (inactive)	> 100 µM (inactive)	> 100 µM (inactive)	46.1 µM (inactive)	1.78 µM (inactive)	–
COCCN(CCOC)C(=O)COc1c2cc(C(C)(C)C)cc1Cc1cc(C(C)(C)C)cc(c1OCC(=O)N(CCOC)CCOC)Cc1cc(C(C)(C)C)cc(c1OCC(=O)N(CCOC)CCOC)Cc1cc(C(C)(C)C)cc(c1OCC(=O)N(CCOC)CCOC)Cc1cc(C(C)(C)C)cc(c1OCC(=O)N(CCOC)CCOC)C2	3.05 µM (inactive)	0.562 µM (active)	–	1.18 µM (inactive)	0.0881 µM (active)	0.877 µM (active)	1.89 µM (inactive)	1.99 µM (inactive)	0.659 µM (active)	0.366 µM (active)	0.817 µM (active)	1.01 µM (active)	0.802 µM (active)	0.53 µM (active)	1.28 µM (inactive)	1.73 µM (inactive)	0.288 µM (active)	0.618 µM (active)	0.491 µM (active)	3.17 µM (inactive)
O=c1oc(-c2ccc(O)cc2)cc2cc(O)ccc12	26.3 µM (inactive)	20.2 µM (inactive)	23 µM (inactive)	19.9 µM (inactive)	31.6 µM (inactive)	25.7 µM (inactive)	24.2 µM (inactive)	–	25.3 µM (inactive)	13.3 µM (inactive)	34.9 µM (inactive)	52 µM (inactive)	41.5 µM (inactive)	–	–	34.8 µM (inactive)	27.5 µM (inactive)	21.2 µM (inactive)	13.2 µM (inactive)	14.7 µM (inactive)
O=C(NCC(=O)N1CCCC1C(=O)OC(=O)C1CCCN1C(=O)CNC(=O)OCc1ccccc1)OCc1ccccc1 (centres undefined)	> 100 µM (inactive)	18.7 µM (inactive)	–	33.8 µM (inactive)	14.9 µM (inactive)	76.9 µM (inactive)	17.7 µM (inactive)	21.1 µM (inactive)	35.8 µM (inactive)	65.6 µM (inactive)	36.2 µM (inactive)	16.7 µM (inactive)	44.8 µM (inactive)	41.8 µM (inactive)	26.1 µM (inactive)	26.2 µM (inactive)	43.3 µM (inactive)	32.9 µM (inactive)	31 µM (inactive)	73.1 µM (inactive)
COc1ccc(CCNCCCC2c3ccccc3-c3ccccc32)cc1OC	18.9 µM (inactive)	1.86 µM (inactive)	20.4 µM (inactive)	13.6 µM (inactive)	13.5 µM (inactive)	7.33 µM (inactive)	4.8 µM (inactive)	–	16.3 µM (inactive)	11.6 µM (inactive)	16.1 µM (inactive)	14.3 µM (inactive)	16.1 µM (inactive)	12.9 µM (inactive)	15.4 µM (inactive)	16 µM (inactive)	16.7 µM (inactive)	12.6 µM (inactive)	4.09 µM (inactive)	8.02 µM (inactive)
CC1(C)Cc2c(c3ccccc3c3nc4c(nc23)c2c(c3ccccc34)OC(C)(C)C2)O1	> 100 µM (inactive)	> 100 µM (inactive)	> 100 µM (inactive)	> 100 µM (inactive)	–	> 100 µM (inactive)	> 100 µM (inactive)	> 100 µM (inactive)	> 100 µM (inactive)	–	> 100 µM (inactive)	> 100 µM (inactive)	> 100 µM (inactive)	> 100 µM (inactive)	–	> 100 µM (inactive)	> 100 µM (inactive)	> 100 µM (inactive)	–	> 100 µM (inactive)
COC(=O)C(COC(=O)/C=C/c1ccc(OC(C)=O)c(OC(C)=O)c1)OC(=O)/C=C/c1ccc(OC(C)=O)c(OC(C)=O)c1 (centres undefined)	–	15.9 µM (inactive)	15.1 µM (inactive)	4.94 µM (inactive)	–	6.27 µM (inactive)	7.8 µM (inactive)	6.7 µM (inactive)	11.1 µM (inactive)	10 µM (inactive)	14.5 µM (inactive)	15.7 µM (inactive)	16.7 µM (inactive)	4.62 µM (inactive)	24.5 µM (inactive)	10.2 µM (inactive)	6.32 µM (inactive)	4.14 µM (inactive)	3.48 µM (inactive)	16.5 µM (inactive)
N#C/C(=C\c1ccc2[nH]ccc2c1)C(=O)c1ccc(O)c(O)c1	59.4 µM (inactive)	> 67.8 µM (inactive)	24.5 µM (inactive)	> 88.5 µM (inactive)	> 100 µM (inactive)	55.2 µM (inactive)	> 63.1 µM (inactive)	–	> 100 µM (inactive)	45 µM (inactive)	45.8 µM (inactive)	> 80.5 µM (inactive)	> 57.7 µM (inactive)	41.6 µM (inactive)	> 71.3 µM (inactive)	> 52 µM (inactive)	9.42 µM (inactive)	> 53.6 µM (inactive)	48.4 µM (inactive)	> 100 µM (inactive)
CC(NC(=O)C(NC(=O)OC(C)(C)C)C(C)C)C(=O)NCC(=O)O (stereo not drawn) (Boc-Val-Ala-Gly-OH; configuration not given here)	> 100 µM (inactive)	> 100 µM (inactive)	> 100 µM (inactive)	> 100 µM (inactive)	–	> 100 µM (inactive)	> 100 µM (inactive)	–	> 100 µM (inactive)	> 100 µM (inactive)	> 100 µM (inactive)	> 100 µM (inactive)	> 100 µM (inactive)	> 100 µM (inactive)	> 10 µM (inactive)	> 100 µM (inactive)	> 100 µM (inactive)	> 100 µM (inactive)	> 100 µM (inactive)	–

From ChEMBL document CHEMBL1201862, “PubChem BioAssay data set” (2004)
